In PMC11902257, “Antiprotozoal Aminosteroids from Pachysandra terminalis” (Molecules, 2025):
Values joined by “and” are separate entries in the source; they are usually repeats but may differ in a detail not shown here. Equal entries are not always repeated. Where two headings read alike, the source gives them in different places.

Assays:
Format in all cases: cell-based
[1] = system: Trypanosoma brucei rhodesiense (Tbr) STIB900 strain; assay: in vitro antitrypanosomal assay, bloodstream forms, resazurin; details: for SI(Tbr): Selectivity index IC50(Cytotox)/IC50(Tbr)
Experimental: Trypanosoma brucei rhodesiense (Tbr): The STIB900 strain is a derivative of the STIB704 strain isolated from a patient in Ifakara, Tanzania, in 1982 [43]. The bloodstream forms were cultivated as axenic culture in HMI-9 medium, supplemented with 15% heat-inactivated horse serum. Cultures were maintained at 37 °C in an atmosphere of 5% CO2. Test compounds were dissolved in DMSO (10 mg/mL), and serial drug dilutions of eleven 3-fold dilution steps covering a range from 100 to 0.002 μg/mL were prepared in a 96-well plate. Bloodstream-form of T. b rhodesiense strain STIB900 (2 × 10^3/well) was added into the wells. After 68 h incubation, 10 μL of resazurin solution (12.5 mg resazurin in 100 mL 1xPBS) was added per well, and plates were incubated for an additional 4 h. Subsequently, the plates were read with a Spectramax Gemini EM microplate fluorometer (Molecular Devices, San Jose, CA, USA) using an excitation wavelength of 536 nm and an emission wavelength of 588 nm. Data were treated according to [44] (see below). Melarsoprol was used as a positive control.
(§1) Bioassay data and statistical methods: In all cases, the readout data were plotted in Microsoft Excel. Half-maximal inhibitory concentrations (IC50 values) were calculated from the sigmoidal dose-response curves by linear regression. Two independent replicates of the assay were performed in all cases, and the results were expressed as arithmetic mean ± deviation from the mean.

[2] = system: Plasmodium falciparum (Pf) NF54 strain; assay: in vitro antiplasmodial assay, 3H-hypoxanthine incorporation, erythrocytic stages; details: for SI (Pf): Selectivity index IC50(Cytotox)/IC50(Pf)
Experimental: Plasmodium falciparum (Pf): Tests were performed against erythrocytic stages of the drug-sensitive NF54 strain. The NF54 strain was obtained from F. Hoffmann-La Roche Limited (Basel, Switzerland). The strain NF54 was originally derived from a patient living near Schiphol Airport, Amsterdam, who had never left the Netherlands. The assay was performed using a 3H-hypoxanthine incorporation assay. Serial compound dilutions were prepared with the medium as indicated above and then added in 96-well plates to parasite cultures incubated in the medium previously described, consisting of RPMI 1640 supplemented with 0.5% ALBUMAX® II, 25 mM Hepes, 25 mM NaHCO3 (pH 7.3), 0.36 mM hypoxanthine, and 100 μg/mL neomycin. The plates were incubated in a humidified atmosphere at 37 °C, 4% CO2, 3% O2, and 93% N2. After 48 h, 0.25 μCi of 3H-hypoxanthine was added to each well. Incubation was continued under identical conditions for a further 24 h. The plates were then harvested using a Betaplate™ cell harvester (Wallac, Zurich, Switzerland). The red blood cells were transferred onto a glass fiber filter and washed with distilled H2O. After drying, filters were inserted into a plastic foil with 10 mL of scintillation fluid and counted with a Betaplate™ liquid scintillation counter (Wallac, Zurich, Switzerland). Data were treated according to [44] (see below). The positive control was chloroquine.
as §1

[3] = cytotoxicity against L-6 rat skeletal myoblasts, resazurin
Experimental: Cytotoxicity against L-6 rat skeletal myoblasts: The L6 rat skeletal myoblast cell line used for cytotoxicity tests was obtained from the American Type Culture Collection (ATCC, Manassas, VA, USA) as ATCC-CRL-1458 [50]. The cells were cultivated in RPMI 1640 medium supplemented with 1% L-glutamine (200mM) and 10% fetal bovine serum. Cultures were maintained at 37 °C in an atmosphere of 5% CO2. Assays were performed in 96-well plates, each well containing RPMI 1640 medium supplemented with 1% L-glutamine (200 mM), 10% fetal bovine serum, and 2 × 10^3 L-6 cells/well. Plates were incubated at 37 °C under a 5% CO2 atmosphere for 24 h. Compounds were dissolved in DMSO (10 mg/mL). After 24 h, serial drug dilutions of eleven 3-fold dilution steps covering a range from 100 to 0.002 μg/mL were prepared, and the plates were incubated at 37 °C under 5% CO2 for 70 h. After 70 h incubation, 10 μL of resazurin solution (12.5 mg resazurin in 100 mL 1xPBS) was added per well, and plates were incubated for an additional 2 h. After that, the plates were read with a Spectramax Gemini EM microplate fluorometer (Molecular Devices, San Jose, CA, USA) using an excitation wavelength of 536 nm and an emission wavelength of 588 nm. Data were treated according to [44] (see below). Podophyllotoxin served as a positive control.
as §1

[4] = pure compounds, tested as mono- or bis-trifluoroacetates where marked
[5] = Trypanosoma brucei, pure compounds, tested as mono- or bis-trifluoroacetates where marked, read-out: IC50 Tbr (converted)
[6] = Trypanosoma brucei, values in brackets, calculated with the molecular masses of the corresponding salts, read-out: IC50 Tbr (converted)
[7] = Plasmodium falciparum, NF54, pure compounds, tested as mono- or bis-trifluoroacetates where marked, read-out: IC50 Pf (converted)
[8] = Plasmodium falciparum, NF54, values in brackets, calculated with the molecular masses of the corresponding salts, read-out: IC50 Pf (converted)
[9] = Plasmodium falciparum, NF54, read-out: IC50 Pf [µg/mL]
[10] = values in brackets, calculated with the molecular masses of the corresponding salts, read-out: IC50 Tbr (converted)

| Structure (SMILES) | IC50 at 70 h [3] | SI(Tbr) ([1]; pure compounds) | IC50 [1, 5] | IC50 [1, 6] | IC50 [2, 7] | IC50 [2, 8] | SI (Pf) ([2]; pure compounds) | further results |
| --- | --- | --- | --- | --- | --- | --- | --- | --- |
| Nc1nc(N)nc(Nc2ccc([As]3SCC(CO)S3)cc2)n1 (stereo not drawn) [Melarsoprol, reference compound] |  |  |  |  |  |  |  | IC50 ([1]; Trypanosoma brucei, read-out: IC50 Tbr): 0.007 ± 0.002 µg/mL; IC50 ([1]; Trypanosoma brucei, read-out: IC50 Tbr [µg/mL]): 0.007 ± 0.002 µg/mL |
| O=C(O)C(F)(F)F [Trifluoroacetate, reference compound] |  |  |  |  |  |  |  | IC50 Tbr [1, 4]: >100 µg/mL; IC50 Pf [2, 4]: >100 µg/mL |
| COc1cc([C@@H]2c3cc4c(cc3[C@H](O)[C@H]3COC(=O)[C@H]23)OCO4)cc(OC)c1OC [Podophyllotoxin, reference compound] |  |  |  |  |  |  |  | IC50 at 70 h ([3]; crude extracts and acid/base fractions, L6 cells, mean of two determinations ± deviation, read-out: IC50 Cytotox (converted)): 0.009 ± 0.001 µg/mL |
| C[C@@H]([C@H]1CC[C@H]2[C@@H]3CC[C@H]4C[C@@H](N(C)C)CC[C@]4(C)[C@H]3CC[C@]12C)N(C)C [Compound 12, N-methyl-desacyl-epipachysamine A] | 7 µg/mL and 11 µM | 3 | 2.3 ± 0.2 µg/mL | 3.9 µM | 2.5 ± 0.3 µg/mL | 4.1 µM | 3 |  |
| CC(=O)[C@H]1CC[C@H]2[C@@H]3CCC4C[C@@H](N(C)C)CC[C@]4(C)[C@H]3CC[C@]12C (stereo partly drawn) [Compound 9, 3β-Dimethylamino-pregnane-20-one] |  | 3 | 2.21 ± 0.06 µg/mL | 4.8 µM |  |  | 0.8 | IC50 at 70 h ([3]; L6 cells, values in brackets, calculated with the molecular masses of the corresponding salts, read-out: IC50 Cytotox (converted)): 14 µM; IC50 at 70 h ([3]; pure compounds, L6 cells, tested as mono- or bis-trifluoroacetates where marked, read-out: IC50 Cytotox (converted)): 6 ± 2 µg/mL; IC50 ([2]; Plasmodium falciparum, NF54, read-out: IC50 Pf (µM)): 18 µM; IC50 [2, 9]: 8 ± 2 µg/mL |
| CN[C@@H](C)[C@H]1CC[C@H]2[C@@H]3CC[C@H]4C[C@@H]([N+](C)(C)CCl)CC[C@]4(C)[C@H]3CC[C@]12C [Compound 6, N3-chloromethyl-desacyl-epipachysamine A] | 87 µg/mL and 136 µM | 74 | 1.2 ± 0.4 µg/mL | 1.9 µM | 0.25 ± 0.03 µg/mL | 0.39 µM | 346 |  |
| CN[C@@H]1CC[C@@]2(C)[C@@H](CC[C@@H]3[C@@H]2CC[C@]2(C)[C@@H]([C@H](C)N(C)C)CC[C@@H]32)C1 [Compound 8, Pachysamine A] | 10.4 µg/mL and 17.7 µM | 13 | 0.8 ± 0.1 µg/mL | 1.3 µM | 1.82 ± 0.06 µg/mL | 3.09 µM | 6 |  |
| C[C@@H]([C@H]1CC[C@H]2[C@@H]3CC[C@H]4[C@@H](O)[C@@H](NC(=O)c5ccccc5)[C@@H](O)C[C@]4(C)[C@H]3CC[C@]12C)N(C)C [Compound 18, 2β,3β,4β-Diapachysamine K] | 17 µg/mL and 28 µM | 3 | 5.9 ± 0.4 µg/mL | 9.9 µM | 47 ± 7 µg/mL | 80 µM | 0.4 |  |
| CC(C)=CC(=O)N[C@@H]1[C@H](O)[C@@H]2CC[C@@H]3[C@H](CC[C@]4(C)[C@@H]([C@H](C)N(C)C)CC[C@@H]34)[C@@]2(C)C[C@@H]1O [Compound 16, 4β-Hydroxy-hookerianamide N] | 45 µg/mL and 79 µM | 6 | 8.1 ± 0.6 µg/mL | 14.1 µM | 6.1 ± 0.5 µg/mL | 10.6 µM | 7 |  |
| C[C@@H]([C@H]1CC[C@H]2[C@@H]3CC[C@H]4[C@H](O)[C@@H](O)CC[C@]4(C)[C@H]3CC[C@]12C)N(C)C [Compound 11, Terminaline] | 28 µg/mL and 60 µM | 5 | 5.9 ± 0.3 µg/mL | 12.4 µM | 3 ± 1 µg/mL | 7 µM | 8 |  |
| C[C@@H]([C@H]1CC[C@H]2[C@@H]3CC=C4C[C@@H](NC(=O)c5cccnc5)CC[C@]4(C)[C@H]3CC[C@]12C)N(C)C [Compound 5, Pactermine A] | 5.8 µg/mL and 8.6 µM | 3 | 1.93 ± 0.06 µg/mL | 2.85 µM | 0.91 ± 0.02 µg/mL | 1.34 µM | 6 |  |
| C[C@@H]([C@H]1CC[C@H]2[C@@H]3CC[C@H]4C[C@@H](NC(=O)c5cccnc5)CC[C@]4(C)[C@H]3CC[C@]12C)N(C)C [Compound 4, Epipachysamine B] | 5.2 µg/mL and 7.7 µM | 3 | 1.6 ± 0.5 µg/mL | 2.4 µM | 2.3 ± 0.2 µg/mL | 3.4 µM | 2 |  |
| CN[C@@H]1CC[C@]2(C)[C@H]3CC[C@]4(C)[C@@H]([C@H](C)N(C)C)CC[C@H]4[C@@H]3CC[C@H]2[C@@H]1OC(=O)C=C(C)C [Compound 10, Pachysandrine D] | 6.5 µg/mL and 9.5 µM | 9 | 0.69 ± 0.03 µg/mL | 0.95 µM | 0.66 ± 0.13 µg/mL | 1.01 µM | 10 | IC50 [1, 10]: 1.01 µM; IC50 ([2]; values in brackets, calculated with the molecular masses of the corresponding salts, read-out: IC50 Pf (converted)): 0.97 µM |
| CCN(CC)CCCC(C)Nc1ccnc2cc(Cl)ccc12 (stereo not drawn) [Chloroquine, reference compound] |  |  |  |  |  |  |  | IC50 ([2]; Plasmodium falciparum, NF54, read-out: IC50 Pf): 0.002 µg/mL; IC50 [2, 9]: 0.002 µg/mL |
| CN[C@@H](C)[C@H]1CC[C@H]2[C@@H]3CC[C@H]4C[C@@H](N(C)C)CC[C@]4(C)[C@H]3CC[C@]12C [Compound 3, Desacyl-epipachysamine A] | 18 µg/mL and 30 µM |  | 2 ± 0.2 µg/mL | 3.5 µM | 0.85 ± 0.03 µg/mL | 1.44 µM | 21 |  |
| CNC1CCC2(C)C3CCC4(C)C(CCC4C(C)N(C)C)C3CCC2C1OC(=O)c1ccccc1 (stereo not drawn) [Compound 7] | 10 µg/mL and 15 µM | 133 | 0.079 ± 0.001 µg/mL | 0.11 µM | 0.45 ± 0.09 µg/mL | 0.63 µM | 23 | IC50 [1, 10]: 0.112 µM |
| CN[C@@H](C)[C@H]1CC[C@H]2[C@@H]3CC=C4C[C@@H](N(C)C)CC[C@]4(C)[C@H]3CC[C@]12C [Compound 2, 5,6-Dehydro-desacyl-epipachysamine A] | 19 µg/mL and 33 µM | 10 | 1.9 ± 0.2 µg/mL | 3.2 µM | 0.898 ± 0.002 µg/mL | 1.53 µM | 21 |  |
| C[C@@H]([C@H]1CC[C@H]2[C@@H]3CC[C@H]4C[C@]5(CC[C@]4(C)[C@H]3CC[C@]12C)c1ccccc1C(=O)N5C)N(C)C [Compound 15, Spiropachysine] | 7.3 µg/mL and 12.7 µM | 3 | 2.21 ± 0.04 µg/mL | 3.83 µM | 3 ± 1 µg/mL | 6 µM | 2 |  |
